Common to all, as to type: functional
For experiment [1], the system named is Helicobacter pylori. The experiment is described as follows: (§1) Minimum bactericidal concentration against Helicobacter pylori ATCC 43504.
The test system of experiment [2] is Helicobacter pylori. The experiment is described as §1. This is another data set of the same source.
For another experiment, the system named is Staphylococcus aureus. The experiment is described as follows: Minimum bactericidal concentration against Staphylococcus aureus CCUG 1800T.
Experiment [3] concerns Helicobacter pylori. Described as §1. This is another data set of the same source.
Another experiment deals with Escherichia coli. The experiment is described as follows: Minimum bactericidal concentration against Escherichia coli K-12.
The test system of experiment [4] is Helicobacter pylori. The experiment is described as follows: Minimum bactericidal concentration against Helicobacter pylori ATCC 43504; range 2-4 ug/mL.

This passage reports MBC results from ChEMBL document CHEMBL1135788, “Novel structures derived from 2-[[(2-pyridyl)methyl]thio]-1H-benzimidazole as anti-Helicobacter pylori agents, Part 1” (2002).

Usually MBC stands for the smallest concentration meeting the test's criterion for killing. Low values mean greater bactericidal potency, high ones weaker bactericidal potency.

Values after ≈ are worked out from the molar mass of the structure shown. Values joined by “and” are separate entries in the source; they are usually repeats but may differ in a detail not shown here. Identical values can stand only once.

As for `Cc1c(CSc2nc3ccccc3o2)cccc1OCC(C)C`, the minimal bactericidal concentration (MBC) with Helicobacter pylori [1] is 64 µg/mL and 195 µM. As to `Cc1c(CCc2nc3ccccc3s2)cccc1OCC(C)C`, in the experiment with Helicobacter pylori [1], the MBC is 32 µg/mL and 98 µM. The same measure, in the same setting: for `Cc1c(OCC(C)C)ccnc1COc1nc2ccccc2o1` the value was 16 µg/mL and 51 µM; for `COCCOCCOCCSc1cccc(CSc2nc3ccccc3[nH]2)c1C`, 0.5 µg/mL and 1.16 µM. With `Cc1c(CSc2nc3ccccc3s2)cccc1OCC(C)C`, the MBC with Helicobacter pylori [1] was > 128 µg/mL and > 373 µM. With `COCCOCCOCCOCCOCCSc1cccc(CSc2nc3ccccc3[nH]2)c1C`, the MBC in the experiment on Helicobacter pylori [1] was 0.5 µg/mL and 0.96 µM. On the same count and under the same terms, for `Cc1c(OCC(C)C)ccnc1CCc1nc2ccccc2o1` the value was 32 µg/mL and 103 µM; for `Cc1c(OCC(C)C)ccnc1CNc1nc2ccccc2s1`, 32 µg/mL and 98 µM; for `COCCOCCOCCOCCOCCOc1cccc(CSc2nc3ccccc3[nH]2)c1C`, 2 µg/mL and 3.96 µM. The same measure, in the same setting: the result for `COCCOCCOCCOc1cccc(CSc2nc3ccccc3[nH]2)c1C` reads 4 µg/mL and 9.6 µM; that for `CCC(=O)c1ccc2[nH]c(SCc3cccc(SCCOCCOCCOCCOCCOC)c3C)nc2c1`, 2 µg/mL and 3.47 µM; that for `Cc1c(CNc2nc3ccccc3[nH]2)cccc1OCC(C)C`, 2 µg/mL and 6.5 µM. On the same count and under the same terms, the result for `Cc1c(CNc2nc3ccccc3[nH]2)cccc1SCCN1CCOCC1` reads 32 µg/mL and 107 µM; that for `Cc1c(CSc2nc3ccccc3[nH]2)cccc1SCC(C)C`, 4 µg/mL and 8.76 µM; that for `Cc1c(CSc2nc3ccccc3[nH]2)cccc1SCCn1c([N+](=O)[O-])cnc1C`, 2 µg/mL and 4.55 µM.

Consider `Cc1c(CCc2nc3ccccc3[nH]2)cccc1OCC(C)C`, for which the MBC against Helicobacter pylori [1] was 8 µg/mL and 26 µM.

Take `Cc1c(OCC(C)C)ccnc1CSc1nc2ccccc2o1`: the MBC with Helicobacter pylori [1] was 32 µg/mL and 81 µM.

As to `Cc1c(CSc2nc3ccccc3[nH]2)cccc1OCC(C)C`, the minimum bactericidal concentration (MBC) with Helicobacter pylori [1] was 8 µg/mL and 19 µM.

Consider `Cc1c(OCC(C)C)ccnc1CCc1nc2ccccc2[nH]1`, for which the MBC against Helicobacter pylori [1] is 32 µg/mL and 103 µM.

For `Cc1c(OCC(C)C)ccnc1CCc1cc2ccccc2o1`, in the experiment with Helicobacter pylori [1], the MBC is 16 µg/mL and 52 µM.

On to `Cc1c(CCc2cc3ccccc3o2)cccc1OCC(C)C`, for which the minimum bactericidal concentration (MBC) with Helicobacter pylori [1] was 128 µg/mL and 415 µM. `COCCOCCOCCSc1cccc(CNc2nc3ccccc3[nH]2)c1C`: the MBC was found to be 77 µM against Helicobacter pylori [1] and 32 µg/mL (≈ 77 µM) in the experiment on Helicobacter pylori [2]. `Cc1c(OCC(C)C)ccnc1CNc1nc2ccccc2[nH]1`: the MBC in the experiment on Staphylococcus aureus was determined as 64 µg/mL (≈ 206 µM); against Helicobacter pylori [1], 8 µg/mL; in the experiment with Helicobacter pylori [3] it was 26 µM (≈ 8.07 µg/mL); in the experiment with Escherichia coli it was 206 µM (≈ 63.9 µg/mL). Regarding `COCCOCCOCCOCCOCCSc1cccc(CSc2nc3cc(CO)ccc3[nH]2)c1C`, the MBC against Helicobacter pylori [1] is 8 µg/mL and 15 µM. In the case of `Cc1c(OCC(C)C)ccnc1CNc1nc2ccccc2o1`, the minimum bactericidal concentration (MBC) in the experiment with Helicobacter pylori [1] was 32 µg/mL and 103 µM. For `Cc1c(OCC(C)C)ccnc1CSc1cc2ccccc2[nH]1`, in the experiment with Helicobacter pylori [1], the MBC was 4 µg/mL and 12 µM.

On to `Cc1c(CSc2nc3ccccc3[nH]2)cccc1SCCn1cncn1`, for which the MBC against Helicobacter pylori [1] is 4 µg/mL and 10.5 µM. Turning to `Cc1c(CCc2cc3ccccc3[nH]2)cccc1OCC(C)C`, the minimal bactericidal concentration (MBC) in the experiment with Helicobacter pylori [1] is 16 µg/mL and 52 µM. Same read-out and setting: for `Cc1c(COc2nc3ccccc3o2)cccc1OCC(C)C` the value was 32 µg/mL and 103 µM; for `COCCOCCOCCSc1cccc(CNc2nc3ccccc3s2)c1C`, 4 µg/mL and 9.25 µM; for `Cc1c(OCC(C)C)ccnc1CSc1nc2ccccc2[nH]1`, 1 µg/mL and 3 µM. Take `Cc1c(CSc2cc3ccccc3[nH]2)cccc1OCC(C)C`: the minimum bactericidal concentration (MBC) in the experiment on Helicobacter pylori [1] is 32 µg/mL and 98 µM. Still for that read-out and setting: for `Cc1c(CSc2nc3ccccc3[nH]2)cccc1SCCN1CCOCC1` the value was 1 µg/mL and 2.5 µM; for `Cc1c(CSc2nc3ccccc3[nH]2)cccc1OCCN1CCOCC1`, 16 µg/mL and 42 µM; for `Cc1c(OCC(C)C)ccnc1COc1nc2ccccc2s1`, 16 µg/mL and 49 µM. The same measure, in the same setting: the result for `CCOC(=O)c1ccc2[nH]c(SCc3cccc(SCCOCCOCCOCCOCCOC)c3C)nc2c1` reads 2 µg/mL and 3.37 µM. Same read-out and setting: for `Cc1c(OCC(C)C)ccnc1CCc1nc2ccccc2s1` the value was 16 µg/mL and 49 µM; for `Cc1c(OCC(C)C)ccnc1CSc1nc2ccccc2s1`, 32 µg/mL and 93 µM. On to `Cc1c(CNc2nc3ccccc3s2)cccc1OCC(C)C`, for which the MBC in the experiment with Helicobacter pylori [1] was > 128 µg/mL and > 392 µM. The same measure, in the same setting: for `COCCOCCOCCOCCOCCSc1cccc(CSc2nc3cc(N)ccc3[nH]2)c1C` the value was 8 µg/mL and 15 µM; for `Cc1c(CCc2nc3ccccc3o2)cccc1OCC(C)C`, 16 µg/mL and 52 µM. Turning to `Cc1c(CNc2nc3ccccc3o2)cccc1OCC(C)C`, the MBC with Helicobacter pylori [1] is > 128 µg/mL and > 412 µM. The same measure, in the same setting: the result for `Cc1c(COc2nc3ccccc3s2)cccc1OCC(C)C` reads 128 µg/mL and 391 µM; that for `CC1(C)S[C@@H]2[C@H](NC(=O)[C@H](N)c3ccc(O)cc3)C(=O)N2[C@H]1C(=O)O` [AMOXICILLIN], 0.05 µg/mL; that for `CC[C@H]1OC(=O)[C@H](C)[C@@H](O[C@H]2C[C@@](C)(OC)[C@@H](O)[C@H](C)O2)[C@H](C)[C@@H](O[C@@H]2O[C@H](C)C[C@H](N(C)C)[C@H]2O)[C@](C)(OC)C[C@@H](C)C(=O)[C@H](C)[C@@H](O)[C@]1(C)O` [CLARITHROMYCIN], 0.1 µg/mL. For the molecule `Cc1ncc([N+](=O)[O-])n1CCO` [METRONIDAZOLE], the MBC against Helicobacter pylori [4] amounted to 2 µg/mL (≈ 11.7 µM).
